pIC50: −log10 of the molar value.
Columns and labels:
IRAK-M = molecular target: T1, IRAK-M (Homo sapiens, UniProt Q9Y616); experiment: IRAK-M binding inhibitory activity (KINOMEscan active site-dependent competitive assay); parameters: purchased Eurofins Discover X; conditions: for pIC50: second symbol of cell, read-out: IRAK-M binding inhibition IC50 value; for remaining binding at 1 µM: concentration of the test compound 1 μM, first symbol of cell, read-out: IRAK-M binding inhibition activity % Ctrl
T1 sequence (Q9Y616 1-596): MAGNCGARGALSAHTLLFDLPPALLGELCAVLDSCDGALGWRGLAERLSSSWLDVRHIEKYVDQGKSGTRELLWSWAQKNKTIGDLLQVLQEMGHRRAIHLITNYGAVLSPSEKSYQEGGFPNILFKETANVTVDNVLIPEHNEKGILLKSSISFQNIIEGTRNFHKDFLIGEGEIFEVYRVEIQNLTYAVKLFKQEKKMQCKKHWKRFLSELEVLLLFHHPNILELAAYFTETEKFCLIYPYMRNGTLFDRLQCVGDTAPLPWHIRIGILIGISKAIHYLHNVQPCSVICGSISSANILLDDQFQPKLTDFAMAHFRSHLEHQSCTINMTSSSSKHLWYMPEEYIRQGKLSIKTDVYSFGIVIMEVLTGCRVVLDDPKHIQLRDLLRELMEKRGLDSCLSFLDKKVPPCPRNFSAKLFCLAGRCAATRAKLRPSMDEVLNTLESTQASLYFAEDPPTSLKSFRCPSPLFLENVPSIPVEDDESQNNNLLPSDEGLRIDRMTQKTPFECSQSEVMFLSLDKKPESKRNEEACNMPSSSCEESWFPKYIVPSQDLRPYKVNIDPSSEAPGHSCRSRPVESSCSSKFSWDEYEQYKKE
In short: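 Readout given as % Ctrl, with DMSO as 100% and a control compound as 0%, scaling the test compound signal between them. Binding to human IRAK-M was assessed by KINOMEscan competition at the kinase active site.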

[1] = molecular target: T2, human XIAP_BIR3 domain purified protein (Homo sapiens, UniProt P98170); experiment: XIAP binding inhibitory activity (HTRF, b-Smac ligand); conditions: second symbol of cell; read-out: XIAP binding inhibition IC50 value
T2 construct: purchased R & D
T2 sequence (P98170 252-356 limits assumed): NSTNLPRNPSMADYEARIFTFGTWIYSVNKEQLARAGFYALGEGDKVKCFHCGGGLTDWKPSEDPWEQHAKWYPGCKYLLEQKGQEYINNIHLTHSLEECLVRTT
Method: Human XIAP binding inhibitory activity was measured by the Homogeneous Time Resolved Fluorescence (HTRF) method with using commercially available human XIAP_BIR3 domain purified protein (R & D) and as a ligand a Smac N-terminal peptide (AVPIAQK (SEQ ID NO: 1)) (hereinafter referred to as “b-Smac”; Peptide Research Laboratories, Inc.) biotinylated at the C-terminus according to a conventional method.
The HTRF method will be described in detail below.
The test compound diluted with a reaction buffer (25 mM HEPES Buffer containing 100 mM NaCl, 0.1% BSA, and 0.1% triton X-100, pH 7.5) was added to a 384-well white shallow bottom plate (Greiner 784076) at 1 μL/well and flash centrifuged for 30 seconds. Subsequently, human XIAP_BIR3 domain purified protein was diluted with the reaction buffer to obtain a 90 nM sample diluent, and the resultant sample diluent was added to the above-mentioned white superficial plate at 4.5 μL/well and flash centrifuged for 30 seconds. Subsequently, b-Smac diluted to 90 nM with the reaction buffer was added to the above-mentioned white superficial plat at 4.5 μL/well and flash centrifuged for 30 seconds. A mixed solution of Anti-6 HIS-Cryptate (Eu^3+ Cryptate-conjugated mouse monoclonal antibody anti-6 Histidine; cisbio) and Streptavidin-XL^eat (Highgrade XL665-conjugated streptavidin; cisbio) both diluted 100-fold with HTRF detection buffer (cisbio) at a volume ratio of 1:1 was added to the above white superficial plate at 10 μL/well. After flash centrifuging the white shallow bottom plate for 30 seconds, the white shallow bottom plate was left at room temperature for 4 hours or more in the dark. The white superficial plate after being left was subjected to fluorescence intensity measurement (excitation wavelength: 320 nm, fluorescence wavelength: 665 nm and 615 nm) by EnVision (Perkin Elmer). The binding inhibition rate (%) was calculated based on the HTRF ratio in the presence of the test compound to the HTRF ratio in the absence of the test compound (fluorescence intensity at 665 nm/fluorescence intensity at 615 nm).
The XIAP binding inhibition rate (%) of test compounds was evaluated.

| SMILES | pIC50 (IRAK-M) | pIC50 [1] | remaining binding at 1 µM (IRAK-M) |
| --- | --- | --- | --- |
| CN[C@@H](C)C(=O)N[C@H](C(=O)N1CCN(C(=O)c2c(C(=O)NCCOCCOCCOc3cc(CN4CCC(Oc5ccnc6ccsc56)CC4)on3)c3cc(F)c(F)cc3n2C)CC1)C1CCCCC1 [Example 5, 2-(4-((S)-2-cyclohexyl-2-((S)-2-(methylamino)propanamido)acetyl)piperazine-1-carbonyl)-5,6-difluoro-1-methyl-N-(2-(2-(2-((5-((4-(thieno[3,2-b]pyridin-7-yloxy)piperidin-1-yl)methyl)isoxazol-3-yl)oxy)ethoxy)ethoxy)ethyl)-1H-indole-3-carboxamide] | 6.00 to 6.52 | 5.52 to 6.52 |  |
| CN[C@@H](C)C(=O)N[C@H](C(=O)N1CCN(C(=O)c2c(C(=O)NCCOCCOCCOCCOc3cc(CN4CCC(Oc5ccnc6ccsc56)CC4)on3)c3cc(F)c(F)cc3n2C)CC1)C1CCCCC1 [Example 6, 2-(4-((S)-2-cyclohexyl-2-((S)-2-(methylamino)propanamido)acetyl)piperazine-1-carbonyl)-5,6-difluoro-1-methyl-N-(2-(2-(2-(2-((5-((4-(thieno[3,2-b]pyridin-7-yloxy)piperidin-1-yl)methyl)isoxazol-3-yl)oxy)ethoxy)ethoxy)ethoxy)ethyl)-1H-indole-3-carboxamide] | 6.52 to 7.00 | 5.52 to 6.52 |  |
| CN[C@@H](C)C(=O)N[C@H](C(=O)N1CCN(C(=O)c2c(C(=O)NCCOCCOCCOc3cc(CN4CCC(Oc5ccnc6ccsc56)CC4)n(C)n3)c3cc(F)c(F)cc3n2C)CC1)C1CCCCC1 [Example 7, 2-(4-((S)-2-cyclohexyl-2-((S)-2-(methylamino)propanamido)acetyl)piperazine-1-carbonyl)-5,6-difluoro-1-methyl-N-(2-(2-(2-((1-methyl-5-((4-(thieno[3,2-b]pyridin-7-yloxy)piperidin-1-yl)methyl)-1H-pyrazol-3-yl)oxy)ethoxy)ethoxy)ethyl)-1H-indole-3-carboxamide] |  | 5.52 to 6.52 | 25 to 50% |
| CN[C@@H](C)C(=O)N[C@H](C(=O)N1CCN(C(=O)c2c(C(=O)NCCOCCOCCOc3cc(CN4CCC(Oc5ccnc6cc(C)sc56)CC4)on3)c3cc(F)c(F)cc3n2C)CC1)C1CCCCC1 [Example 8, 2-(4-((S)-2-cyclohexyl-2-((S)-2-(methylamino)propanamido)acetyl)piperazine-1-carbonyl)-5,6-difluoro-1-methyl-N-(2-(2-(2-((5-((4-((2-methylthieno[3,2-b]pyridin-7-yl)oxy)piperidin-1-yl)methyl)isoxazol-3-yl)oxy)ethoxy)ethoxy)ethyl)-1H-indole-3-carboxamide] | 7.00 to 7.52 | 5.52 to 6.52 |  |
| CN[C@@H](C)C(=O)N[C@H](C(=O)N1CCN(C(=O)c2c(C(=O)NCCOCCOCCOc3cc(C(C)N4CCC(Oc5ccnc6cc(C)sc56)CC4)on3)c3cc(F)c(F)cc3n2C)CC1)C1CCCCC1 (stereo partly drawn) [Example 9, 2-(4-((S)-2-cyclohexyl-2-((S)-2-(methylamino)propanamido)acetyl)piperazine-1-carbonyl)-5,6-difluoro-1-methyl-N-(2-(2-(2-((5-(1-(4-((2-methylthieno[3,2-b]pyridin-7-yl)oxy)piperidin-1-yl)ethyl)isoxazol-3-yl)oxy)ethoxy)ethoxy)ethyl)-1H-indole-3-carboxamide] | 7.00 to 7.52 | 5.52 to 6.52 |  |
| CN[C@@H](C)C(=O)N[C@H](C(=O)N1CCN(C(=O)c2c(C(=O)NCCOCCOCCOc3cc(CN4CCC(Oc5ccnc6ccsc56)CC4)on3)c3cc(F)c(F)cc3n2C)C[C@H]1C)C1CCCCC1 [Example 10, 2-((R)-4-((S)-2-cyclohexyl-2-((S)-2-(methylamino)propanamido)acetyl)-3-methylpiperazine-1-carbonyl)-5,6-difluoro-1-methyl-N-(2-(2-(2-((5-((4-(thieno[3,2-b]pyridin-7-yloxy)piperidin-1-yl)methyl)isoxazol-3-yl)oxy)ethoxy)ethoxy)ethyl)-1H-indole-3-carboxamide] |  | 5.52 to 6.52 | 25 to 50% |
| CN[C@@H](C)C(=O)N[C@H](C(=O)N1CCN(C(=O)c2c(C(=O)N(C)CCOCCOCCOc3cc(CN4CCC(Oc5ccnc6ccsc56)CC4)on3)c3cc(F)c(F)cc3n2C)C[C@H]1C)C1CCCCC1 [Example 11, 2-((R)-4-((S)-2-cyclohexyl-2-((S)-2-(methylamino)propanamido)acetyl)-3-methylpiperazine-1-carbonyl)-5,6-difluoro-N,1-dimethyl-N-(2-(2-(2-((5-((4-(thieno[3,2-b]pyridin-7-yloxy)piperidin-1-yl)methyl)isoxazol-3-yl)oxy)ethoxy)ethoxy)ethyl)-1H-indole-3-carboxamide] |  | 4.52 to 5.52 | < 25% |
| CN[C@@H](C)C(=O)N[C@H](C(=O)N1CCN(C(=O)c2c(C(=O)NCCOCCOCCOc3cc(CN4CCC(Oc5ccnc6ccsc56)CC4)on3)c3cc(F)c(OC)cc3n2C)CC1)C1CCCCC1 [Example 13, 2-(4-((S)-2-cyclohexyl-2-((S)-2-(methylamino)propanamido)acetyl)piperazine-1-carbonyl)-5-fluoro-6-methoxy-1-methyl-N-(2-(2-(2-((5-((4-(thieno[3,2-b]pyridin-7-yloxy)piperidin-1-yl)methyl)isoxazol-3-yl)oxy)ethoxy)ethoxy)ethyl)-1H-indole-3-carboxamide] |  | > 6.52 | < 25% |
| CN[C@@H](C)C(=O)N[C@H](C(=O)N1CCN(C(=O)c2c(C(=O)N(C)CCOCCOCCOc3cc(CN4CCC(Oc5ccnc6ccsc56)CC4)on3)c3cc(F)ccc3n2C)CC1)[C@H](O)C(C)C [Example 14, 5-fluoro-2-(4-((2S,3R)-3-hydroxy-4-methyl-2-((S)-2-(methylamino)propanamido)pentanoyl)piperazine-1-carbonyl)-N,1-dimethyl-N-(2-(2-(2-((5-((4-(thieno[3,2-b]pyridin-7-yloxy)piperidin-1-yl)methyl)isoxazol-3-yl)oxy)ethoxy)ethoxy)ethyl)-1H-indole-3-carboxamide] |  | 4.52 to 5.52 | < 25% |
| CN[C@@H](C)C(=O)N[C@@H](Cn1cccn1)C(=O)N1CCN(C(=O)c2c(C(=O)N(C)CCOCCOCCOc3cc(CN4CCC(Oc5ccnc6ccsc56)CC4)on3)c3cc(F)ccc3n2C)CC1 [Example 15, 5-fluoro-N,1-dimethyl-2-(4-((S)-2-((S)-2-(methylamino)propanamido)-3-(1H-pyrazol-1-yl)propanoyl)piperazine-1-carbonyl)-N-(2-(2-(2-((5-((4-(thieno[3,2-b]pyridin-7-yloxy)piperidin-1-yl)methyl)isoxazol-3-yl)oxy)ethoxy)ethoxy)ethyl)-1H-indole-3-carboxamide] |  | 5.52 to 6.52 | 25 to 50% |
| CN[C@@H](C)C(=O)N[C@H](C(=O)N1CCN(C(=O)c2c(C(=O)N(C)CCOCCOCCOc3cc(CN4CCC(Oc5ccnc6ccsc56)CC4)on3)c3cc(F)ccc3n2C)CC1)C(C)(C)O [Example 16, 5-fluoro-2-(4-((S)-3-hydroxy-3-methyl-2-((S)-2-(methylamino)propanamido)butanoyl)piperazine-1-carbonyl)-N,1-dimethyl-N-(2-(2-(2-((5-((4-(thieno[3,2-b]pyridin-7-yloxy)piperidin-1-yl)methyl)isoxazol-3-yl)oxy)ethoxy)ethoxy)ethyl)-1H-indole-3-carboxamide] |  | 5.52 to 6.52 | 25 to 50% |

— US20220402935A1, “HETEROCYCLIC COMPOUND” (FIMECS, INC., priority 2019, published 2022)
